Patent US20220071932A1, “Compositions and Methods Against Stress-Induced Affective Disorders and Their Associated Symptoms” (The Trustees of Columbia University in the City of New York, priority 2019, published 2022)

What was measured:
Assay type in all cases: in vivo
129S6/SvEv mice [1] = experiment: Novelty suppressed feeding (NSF); conditions: for Novelty Suppressed Feeding, Latency to feed in OF (sec), p (Fisher's LSD): FIG. 8P
Description: Testing was performed as previously described (47). Briefly, the NSF testing apparatus consisted of a plastic box (50×50×20 cm). The floor of which was covered with approximately 2 cm of wooden bedding and the arena was brightly lit (approximately 1000 lux). Mice were food restricted for 24 h prior to testing. At the time of testing, a single pellet of food (regular chow) was placed on a white paper platform positioned in the center of the box. Each animal was placed in a corner of the box, and a stopwatch was immediately started. The latency of the mice to begin eating in the arena was recorded Immediately after the latency was recorded, the food pellet was removed from the arena. The mice were then placed back into their home cage. The latency to eat and the amount of food consumed in 5 min were measured (home cage consumption), followed by an assessment of post-restriction weight. A Kaplan-Meier survival analysis was used due to the lack of normal distribution of data. The Mantel-Cox log-rank test was used to evaluate differences between the experimental groups.

129S6/SvEv mice [2] = experiment: Elevated plus maze (EPM); conditions: for distance travelled in the EPM / time spent in the open arms and center of the EPM: (R,S)-ketamine 30 mg/kg, FENM 10, 20 or 30 mg/kg
Description: Testing was performed as previously described (47). Briefly, the maze is a plus-cross-shaped apparatus consisting of four arms, two open and two enclosed by walls, linked by a central platform at a height of 50 cm from the floor. Mice were individually placed in the center of the maze facing an open arm and were allowed to explore the maze for 5 min. The time spent in and the number of entries into the open arms was used as an anxiety index. Videos were scored using ANY-maze behavior tracking software (Stoelting, Wood Dale, Ill.).

129S6/SvEv mice [3] = experiment: Open field (OF)
Description: The OF assay was administered as previously described (47). Briefly, motor activity was quantified in 4 Plexiglas open field boxes 43×43 cm^2 (MED Associates, Georgia, Vt.). Two sets of 16 pulse-modulated infrared photobeams on opposite walls 2.5-cm apart recorded x-y ambulatory movements. Activity chambers were computer interfaced for data sampling at 100-ms resolution. The computer defined grid lines that dividing center and surround regions, with the center square consisting of four lines 11 cm from the wall.

129S6/SvEv mice [4] = experiment: Marble burying (MB); conditions: for p, Fisher's PLSD Saline vs. drug, MB Marbles Buried (no.): drug 5 minutes after stress, FIG. 2K
Description: The MB assay was conducted in a clean cage (10.5 in×5.5 in) containing soft pliable Beta Chip bedding (Northeastern Products Corp, Warrensburg, N.Y.). The cage contained 16 marbles set up in 4 rows of 4 across. Mice were given 30 minutes to explore and bury. At the end of the assay, the percentage of marbles buried was calculated.

[5] = 1 week prior to CFC, (R,S)-ketamine 30 mg/kg, FENM 10, 20 or 30 mg/kg, vs saline
[6] = 5 min after context re-exposure 1, (R,S)-ketamine 30 mg/kg, FENM 20 mg/kg, vs saline
[7] = 5 min prior to CFC, (R,S)-ketamine 30 mg/kg, FENM 20 mg/kg, vs saline
[8] = 5 minutes after CFC, re-exposure 1 day after training, (R,S)-ketamine 30 mg/kg, FENM 20 mg/kg, vs saline
[9] = 5 minutes prior to re-exposure 1, (R,S)-ketamine 30 mg/kg, FENM 20 mg/kg, vs saline
[10] = non-stressed mice, FENM 20 mg/kg 1 hour before the start of the OF, vs saline
[11] = 5 minutes after CFC, re-exposure 5 days after training, vs saline
[12] = Fisher's PLSD, drug 5 minutes after stress, (R,S)-ketamine 30 mg/kg vs. FENM 20 mg/kg
[13] = Fisher's PLSD, drug 5 minutes after stress, FENM 20 mg/kg, (R,S)-ketamine 30 mg/kg
[14] = Saline vs. FENM (20 mg/kg), cohort 5 min before re-exposure 1, FIG. 9L

NC12CC3CC(C1)CC(CCF)(C3)C2 [FENM, 1-amino-3-fluoroethyl-adamantane]
latency to feed in the open arena (NSF) (129S6/SvEv mice [1]; [5]): did not alter | latency to eat in the NSF arena (129S6/SvEv mice [1]; [6]): did not alter | latency to eat in the homecage (NSF) (129S6/SvEv mice [1]; [6]): did not alter | latency to feed in the open arena (NSF) (129S6/SvEv mice [1]; [7]): but not FENM, increased | latency to feed in the home cage (NSF) (129S6/SvEv mice [1]; [8]): did not alter | latency to feed in the open arena (NSF) (129S6/SvEv mice [1]; [8]): did not alter | latency to feed in the open arena (NSF) (129S6/SvEv mice [1]; 5 minutes after CFC, re-exposure 5 days after training, (R,S)-ketamine 30 mg/kg, FENM 10, 20 or 30 mg/kg, vs saline): did not alter | latency to eat in the NSF arena (129S6/SvEv mice [1]; [9]): did not alter | latency to eat in the homecage (NSF) (129S6/SvEv mice [1]; [9]): did not alter | Novelty Suppressed Feeding, Latency to feed in OF (sec), p (Fisher's LSD) (129S6/SvEv mice [1]; (R,S)-ketamine (30 mg/kg) vs. FENM (20 mg/kg)): 0.0130 | Behavior: Hypophagia (129S6/SvEv mice [1]; Baseline Anxiolytic, dose 20 mg/kg): ↓ | p, Fraction of mice not eating in OF, NSF, Saline vs. FENM (129S6/SvEv mice [1]; Log-rank (Mantel-Cox) test, Baseline, anxiety cohort, FENM 20 mg/kg, FIG. 7J): 0.0210 | p, Fraction of mice not eating in HC, NSF, Saline vs. FENM (129S6/SvEv mice [1]; Log-rank (Mantel-Cox) test, Baseline, anxiety cohort, FENM 20 mg/kg, FIG. 7K): 0.7953 | Novelty Suppressed Feeding, Latency to feed in OF (sec), p (Fisher's LSD) (129S6/SvEv mice [1]; Saline vs. FENM (20 mg/kg)): 0.4585 | latency to approach the pellet in the NSF arena (129S6/SvEv mice [1]; [10]): significantly decreased | latency to eat in the homecage (NSF) (129S6/SvEv mice [1]; [10]): did not alter | p, Change in Weight (g), NSF, Saline vs. FENM (129S6/SvEv mice [1]; t-test, Baseline, anxiety cohort, FENM 20 mg/kg, FIG. 7L): 0.1661 | p, Food Eaten (g), NSF, Saline vs. FENM (129S6/SvEv mice [1]; t-test, Baseline, anxiety cohort, FENM 20 mg/kg, FIG. 7M): 0.0801 | distance travelled in the EPM (129S6/SvEv mice [2]; 1 week prior to CFC, vs saline): did not alter | time spent in the open arms and center of the EPM (129S6/SvEv mice [2]; 1 week prior to CFC, vs saline): did not alter | distance travelled in the EPM (129S6/SvEv mice [2]; [11]): did not alter | time spent in the open arms and center of the EPM (129S6/SvEv mice [2]; [11]): did not alter | time in the open arms, closed arms, and center of the EPM (129S6/SvEv mice [2]; [10]): comparable | p, Time in Open Arms (sec), EPM, Saline vs. FENM (129S6/SvEv mice [2]; t-test, Baseline, anxiety cohort, FENM 20 mg/kg, FIG. 7G): 0.5729 | p, Time in Closed Arms (sec), EPM, Saline vs. FENM (129S6/SvEv mice [2]; t-test, Baseline, anxiety cohort, FENM 20 mg/kg, FIG. 7H): 0.5729 | p, Time in Center (sec), EPM, Saline vs. FENM (129S6/SvEv mice [2]; t-test, Baseline, anxiety cohort, FENM 20 mg/kg, FIG. 7I): 0.3211 | distance travelled in the OF (129S6/SvEv mice [3]; [5]): did not alter | time spent in the center of the OF arena (129S6/SvEv mice [3]; [5]): did not alter | time spent in the center of the OF (129S6/SvEv mice [3]; 5 min after context re-exposure 1, FENM 20 mg/kg, vs saline): significantly increased | distance travelled in the OF (129S6/SvEv mice [3]; [7]): did not alter | time spent in the center of the OF arena (129S6/SvEv mice [3]; [7]): did not alter | Open Field, Distance Travelled Min 1 (cm), p (Fisher's LSD) (129S6/SvEv mice [3]; (R,S)-ketamine (30 mg/kg) vs. FENM (20 mg/kg), cohort 5 min before re-exposure 1, FIG. 9L): 0.0129 | p, Distance Travelled (cm), OF, (R,S)-ketamine vs. FENM (129S6/SvEv mice [3]; Fisher's PLSD after RMANOVA, drug 5 minutes after stress, (R,S)-ketamine 30 mg/kg vs. FENM 20 mg/kg, FIG. 3L): 0.8632 | p, Distance Travelled (cm), OF, Saline vs. drug (129S6/SvEv mice [3]; Fisher's PLSD after RMANOVA, drug 5 minutes after stress, FENM 20 mg/kg, (R,S)-ketamine 30 mg/kg, FIG. 3L): 0.7967 | p, Distance Travelled Min 1 (cm), OF, (R,S)-ketamine vs. FENM (129S6/SvEv mice [3]; [12]): 0.5911 | p, Distance Travelled Min 2 (cm), OF, (R,S)-ketamine vs. FENM (129S6/SvEv mice [3]; [12]): 0.8997 | p, Distance Travelled Min 3 (cm), OF, (R,S)-ketamine vs. FENM (129S6/SvEv mice [3]; [12]): 0.5565 | p, Distance Travelled Min 4 (cm), OF, (R,S)-ketamine vs. FENM (129S6/SvEv mice [3]; [12]): 0.7043 | p, Distance Travelled Min 5 (cm), OF, (R,S)-ketamine vs. FENM (129S6/SvEv mice [3]; [12]): 0.5847 | p, Distance Travelled Min 6 (cm), OF, (R,S)-ketamine vs. FENM (129S6/SvEv mice [3]; [12]): 0.7385 | p, Distance Travelled Min 7 (cm), OF, (R,S)-ketamine vs. FENM (129S6/SvEv mice [3]; [12]): 0.4416 | p, Distance Travelled Min 8 (cm), OF, (R,S)-ketamine vs. FENM (129S6/SvEv mice [3]; [12]): 0.7658 | p, Distance Travelled Min 9 (cm), OF, (R,S)-ketamine vs. FENM (129S6/SvEv mice [3]; [12]): 0.8899 | p, Distance Travelled Min 10 (cm), OF, (R,S)-ketamine vs. FENM (129S6/SvEv mice [3]; [12]): 0.9456 | p, Distance Travelled Min 1 (cm), OF, Saline vs. drug (129S6/SvEv mice [3]; [13]): 0.0158 | p, Distance Travelled Min 2 (cm), OF, Saline vs. drug (129S6/SvEv mice [3]; [13]): 0.0068 | p, Distance Travelled Min 3 (cm), OF, Saline vs. drug (129S6/SvEv mice [3]; [13]): 0.4093 | p, Distance Travelled Min 4 (cm), OF, Saline vs. drug (129S6/SvEv mice [3]; [13]): 0.4054 | p, Distance Travelled Min 5 (cm), OF, Saline vs. drug (129S6/SvEv mice [3]; [13]): 0.1372 | p, Distance Travelled Min 6 (cm), OF, Saline vs. drug (129S6/SvEv mice [3]; [13]): 0.5067 | p, Distance Travelled Min 7 (cm), OF, Saline vs. drug (129S6/SvEv mice [3]; [13]): 0.4644 | p, Distance Travelled Min 8 (cm), OF, Saline vs. drug (129S6/SvEv mice [3]; [13]): 0.0809 | p, Distance Travelled Min 9 (cm), OF, Saline vs. drug (129S6/SvEv mice [3]; [13]): 0.0040 | p, Distance Travelled Min 10 (cm), OF, Saline vs. drug (129S6/SvEv mice [3]; [13]): 0.5094 | Open Field, Distance Travelled Min 1 (cm), p (Fisher's LSD) (129S6/SvEv mice [3]; [14]): 0.1253 | Open Field, Distance Travelled Min 2 (cm), p (Fisher's LSD) (129S6/SvEv mice [3]; [14]): 0.0385 | distance travelled in the OF (129S6/SvEv mice [3]; [10]): comparable | time in the center of the OF (129S6/SvEv mice [3]; [10]): comparable | time in the periphery of the OF (129S6/SvEv mice [3]; [10]): comparable | p, Distance Travelled (cm), OF, Saline vs. FENM (129S6/SvEv mice [3]; t-test, Baseline, anxiety cohort, FENM 20 mg/kg, FIG. 7C): 0.1878 | p, Time in Center (sec), OF, Saline vs. FENM (129S6/SvEv mice [3]; t-test, Baseline, anxiety cohort, FENM 20 mg/kg, FIG. 7D): 0.1241 | p, Time in Periphery (sec), OF, Saline vs. FENM (129S6/SvEv mice [3]; t-test, Baseline, anxiety cohort, FENM 20 mg/kg, FIG. 7E): 0.1225 | p, Fisher's PLSD Saline vs. drug, MB Marbles Buried (no.) (129S6/SvEv mice [4]; 10 mg/kg): 0.0737 | p, Fisher's PLSD Saline vs. drug, MB Marbles Buried (no.) (129S6/SvEv mice [4]; 30 mg/kg): 0.0097 | number of marbles buried (129S6/SvEv mice [4]; 5 minutes after CFC, re-exposure 5 days after training, FENM 20 and 30 mg/kg, (R,S)-ketamine 30 mg/kg, vs saline): decreased the number of marbles buried | p, Fisher's PLSD Saline vs. drug, MB Marbles Buried (no.) (129S6/SvEv mice [4]; dose (20)): 0.0002
